pKi: −log10 of the molar value. Where a name gives a salt, the structure may show the parent alone. Read-outs that look alike come from different tables or passages of the source. Blank lines part the entries; values can stand above or below the compound they belong to.
Tests used:
[1] = target: T1, human intestinal bile acid transporter (hIBAT) (Homo sapiens, UniProt Q12908); assay: Competitive inhibition of 3H-taurocholate uptake in COS-hIBAT cells; type: cell-based; conditions: for pKi: COS-7 cells transfected with hIBAT, HBSS with sodium, value (±SEM); for inhibition of 3H-taurocholate uptake / interaction with hIBAT (in words): COS-hIBAT cells, 0.25 μM 3H-taurocholate, valacyclovir 10 to 600 μM, atenolol 10 to 200 μM, glycine and taurine 50 to 200 μM, bile acids 1 to 100 μM
T1 construct: expressed in transfected cells; host or cells: COS-7 cells, transient transfection with pCMV5-hIBAT (LipofectAMINE 2000)
T1 sequence (Q12908 1-348): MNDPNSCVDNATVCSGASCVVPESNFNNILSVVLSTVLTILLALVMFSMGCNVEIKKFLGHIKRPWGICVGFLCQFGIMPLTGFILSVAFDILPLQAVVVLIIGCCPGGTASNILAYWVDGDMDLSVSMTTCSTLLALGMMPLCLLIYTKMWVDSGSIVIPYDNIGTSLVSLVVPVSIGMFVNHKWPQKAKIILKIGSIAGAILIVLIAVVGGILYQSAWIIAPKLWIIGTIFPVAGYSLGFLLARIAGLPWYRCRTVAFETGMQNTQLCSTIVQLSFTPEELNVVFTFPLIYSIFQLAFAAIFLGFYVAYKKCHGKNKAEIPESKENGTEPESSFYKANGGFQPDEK
Experimental: Cell dilutions are streaked on nutrient agar plates containing 50 μg/ml ampicillin, and incubated at 37° C. overnight. Isolated colonies are selected aseptically, and are used to inoculate a 200 ml nutrient broth culture containing 50 μg/ml ampicillin. […] After an isopropanol precipitation and ethanol wash, the DNA is reconstituted in 600 μl of sterile deionized water. […] Cells are transfected at 24 hours post seeding. For each well transfected, 0.8 μg hIBAT cDNA is combined with LipofectAMINE 2000 reagent and incubated at room temperature for 20 minutes to allow complexes to form. A volume of 100 μl of hIBAT-lipid complex is added to each well of cells.
Uptake studies are performed on COS-hIBAT cells at 24 hours post-transfection. […] Because bile acid transport is sodium dependent, this MHBSS approach allows for the simple modification of the uptake buffer to exclude all sources of sodium, and thus enables for a control uptake assay under sodium-free conditions.
Incubation conditions and analysis are performed as described for the Km and Vmax studies. The following equation (Formula 2) is used to estimate the Ki for a series of naturally occurring bile acids: [formula]
Inhibition studies are performed in triplicate.

Caco-2 monolayers = conditions: across Caco-2 monolayers; example value for reference marker; cited from earlier work
[2] = cited from earlier work
[3] = target: T2, human intestinal peptide transporter (PepT1) (Homo sapiens, UniProt P46059); conditions: stable lines of CHO/PepT1; cited from earlier work
T2 sequence (P46059 1-708): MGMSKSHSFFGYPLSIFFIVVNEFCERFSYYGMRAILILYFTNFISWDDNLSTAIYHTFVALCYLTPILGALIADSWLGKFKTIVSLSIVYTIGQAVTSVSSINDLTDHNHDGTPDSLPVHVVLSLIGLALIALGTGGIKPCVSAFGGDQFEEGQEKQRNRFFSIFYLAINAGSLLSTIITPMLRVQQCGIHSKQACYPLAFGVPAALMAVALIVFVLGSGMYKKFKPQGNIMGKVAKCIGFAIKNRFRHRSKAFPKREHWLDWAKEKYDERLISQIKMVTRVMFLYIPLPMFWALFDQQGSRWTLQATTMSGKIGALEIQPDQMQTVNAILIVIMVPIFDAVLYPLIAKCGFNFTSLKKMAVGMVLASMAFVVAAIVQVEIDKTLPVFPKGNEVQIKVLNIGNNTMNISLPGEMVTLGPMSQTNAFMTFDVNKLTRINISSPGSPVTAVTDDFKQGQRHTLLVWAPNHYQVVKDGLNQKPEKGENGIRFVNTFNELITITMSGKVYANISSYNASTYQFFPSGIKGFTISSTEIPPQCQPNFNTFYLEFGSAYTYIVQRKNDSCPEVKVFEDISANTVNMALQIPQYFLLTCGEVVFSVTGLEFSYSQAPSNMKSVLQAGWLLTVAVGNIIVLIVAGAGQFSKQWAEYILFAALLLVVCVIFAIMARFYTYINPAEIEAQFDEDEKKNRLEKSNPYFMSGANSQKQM

[4] = read-out: Ki, inhibition of 3H-taurocholate uptake

pKi [1, 4]: 4.45
SMILES: CC(C)[C@H](NC(=O)CC[C@@H](C)[C@H]1CC[C@H]2[C@@H]3[C@H](O)C[C@@H]4C[C@H](O)CC[C@]4(C)[C@H]3CC[C@]12C)C(=O)OCCOCn1cnc2c(=O)[nH]c(N)nc21 [acyclovir valylchenodeoxycholate]

pKi [1, 4]: 3.40
SMILES: CC(C)C(NC(=O)CCC(C)C1CCC2C3CCC4CC(O)CCC4(C)C3CC(O)C12C)C(=O)OCCOCn1cnc2c(=O)[nH]c(N)nc21 (centres unmarked) [acyclovir valyldeoxycholate]

pKi [1]: 5.27
SMILES: C[C@H](CCC(=O)O)[C@H]1CC[C@H]2[C@@H]3[C@H](O)C[C@@H]4C[C@H](O)CC[C@]4(C)[C@H]3CC[C@]12C [chenodeoxycholate]

inhibition of 3H-taurocholate uptake / interaction with hIBAT (in words) [1]: not reduced
SMILES: NCC(=O)O [glycine]

SMILES: C[C@H](CCC(=O)O)[C@H]1CC[C@H]2[C@@H]3CC[C@@H]4C[C@H](O)CC[C@]4(C)[C@H]3CC[C@]12C [lithocholate]
inhibition of 3H-taurocholate uptake / interaction with hIBAT (in words) [1]: never reaches 50% maximal velocity

SMILES: COCCc1ccc(OCC(O)CNC(C)C)cc1 (centres unmarked) [metoprolol tartrate]
permeability (Caco-2 monolayers): 400 nm/s

inhibition of 3H-taurocholate uptake / interaction with hIBAT (in words) [1]: not reduced
SMILES: NCCS(=O)(=O)O [taurine]

SMILES: CC(C)[C@H](N)C(=O)OCCOCn1cnc2c(=O)[nH]c(N)nc21 [valacyclovir]
inhibition of 3H-taurocholate uptake / interaction with hIBAT (in words) [1]: no inhibition | inhibition of 3H-taurocholate uptake / interaction with hIBAT (in words) ([1]; listed as Valacyclovir): do not inhibit | bioavailability after oral administration [2]: 54% | pKi [3]: 2.96

From US20030212051A1, “Bile acid containing prodrugs with enhanced bioavailabilty” (priority 2003, published 2003)
